For 23 compounds, T/C results are on record in PubChem BioAssay AID330 (DTP/NCI, 2004).

This assay has as its system P388 leukemia ip, CD2F1 mice, survival T/C. Nature of the assay: NCI In Vivo Anticancer Drug Screen. Data for tumor model P388 Leukemia (intraperitoneal) in CD2F1 (CDF1) mice. The following applies: endpoint: median survival time, higher = longer survival. As to the method:
The antitumor activity of compounds was measured in mice bearing transplantable tumors. Survival or tumor size were measured and the results are expressed as the measurement made in the treated group (T) divided by the measurement made in the vehicle treated control group (C). The tumor model used in this assay is P388 Leukemia (intraperitoneal) in CD2F1 (CDF1) mice

The mark [1] stands for this setting: dose: 12.5 mg/kg/injection, schedule: Q01DX009 (ip), vehicle: saline.
[2] abbreviates: dose: 25.0 mg/kg/injection, schedule: Q01DX009 (ip), vehicle: saline.
The mark [3] stands for this setting: dose: 50.0 mg/kg/injection, schedule: Q01DX009 (ip), vehicle: saline.
Where [4] appears, read: dose: 50.0 mg/kg/injection, schedule: Q01DX009 (ip), vehicle: Klucel (hydroxypropylcellulose) (HPC).
The mark [5] stands for this setting: dose: 100.0 mg/kg/injection, schedule: Q01DX009 (ip), vehicle: Klucel (hydroxypropylcellulose) (HPC).
[6] abbreviates: dose: 200.0 mg/kg/injection, schedule: Q01DX009 (ip), vehicle: Klucel (hydroxypropylcellulose) (HPC).
Setting [7] is: dose: 400.0 mg/kg/injection, schedule: Q01DX009 (ip), vehicle: Klucel (hydroxypropylcellulose) (HPC).
Setting [8] is: dose: 50.0 mg/kg/injection, schedule: Q01DX005 (ip), vehicle: Klucel (hydroxypropylcellulose) (HPC).
The mark [9] stands for this setting: dose: 100.0 mg/kg/injection, schedule: Q01DX005 (ip), vehicle: Klucel (hydroxypropylcellulose) (HPC).
[10] abbreviates: dose: 200.0 mg/kg/injection, schedule: Q01DX005 (ip), vehicle: Klucel (hydroxypropylcellulose) (HPC).
The mark [11] stands for this setting: dose: 50.0 mg/kg/injection, schedule: Q01DX005 (ip), vehicle: saline with Tween-80.
Setting [12] is: dose: 100.0 mg/kg/injection, schedule: Q01DX005 (ip), vehicle: saline with Tween-80.
[13] abbreviates: dose: 200.0 mg/kg/injection, schedule: Q01DX005 (ip), vehicle: saline with Tween-80.
[14] abbreviates: dose: 100.0 mg/kg/injection, schedule: Q04DX002 (ip), vehicle: saline with Tween-80.

Values joined by “and” are separate entries in the source; they are usually repeats but may differ in a detail not shown here. Identical values can stand only once. Inconclusive results and toxic doses are left out.

Regarding `COc1ccc(CC(C)NCC(O)c2ccc(O)c(NC=O)c2)cc1` (stereo unspecified), the T/C reads like this: (dose: 6.25 mg/kg/injection, schedule: Q01DX009 (ip), vehicle: saline) 100 % of control; under setting [1], 101 % of control; under setting [2], 99 % of control; (dose: 50.0 mg/kg/injection, schedule: Q01DX009 (ip), vehicle: suspension in saline) 99 % of control; (dose: 200.0 mg/kg/injection, schedule: Q01DX009 (ip), vehicle: suspension in saline) 91 % of control.
For the compound `CN(C)CCSC(=O)N1c2ccccc2C(C)(C)c2ccccc21`, the T/C under setting [3] is 102 % of control and the T/C (dose: 100.0 mg/kg/injection, schedule: Q01DX009 (ip), vehicle: saline) is 103 % of control.
Turning to `CC1(C)CC(O)(Cc2ccccc2)C(=O)c2ccccc21` (stereo unspecified), the T/C is 96 % of control (dose: 25.0 mg/kg/injection, schedule: Q01DX009 (ip), vehicle: Klucel (hydroxypropylcellulose) (HPC)); 95 % of control under setting [4]; 98 % of control under setting [5]; 98 % of control under setting [6]; 86 % of control under setting [7].
On to `Nc1ccc2c(NCCCCCCNc3c4ccccc4nc4cc(N)ccc34)c3ccccc3nc2c1`, for which the T/C (dose: 0.63 mg/kg/injection, schedule: Q01DX009 (ip), vehicle: other) is 122 % of control.
With `O=C1OC(c2ccccc2)Sc2ccccc21` (stereo unspecified), the T/C under setting [5] was 99 % of control, the T/C under setting [6] is 95 % of control and the T/C under setting [7] was 92 % of control.
In the case of `COc1ccc(C(=O)/C=C/c2cc3c(cc2OCc2ccccc2)OCO3)c(OCc2ccccc2)c1`, the T/C (dose: 75.0 mg/kg/injection, schedule: Q04DX003 (ip), vehicle: Klucel (hydroxypropylcellulose) (HPC)) was 99 % of control; the T/C (dose: 150.0 mg/kg/injection, schedule: Q04DX003 (ip), vehicle: Klucel (hydroxypropylcellulose) (HPC)) is 94 % of control; the T/C (dose: 300.0 mg/kg/injection, schedule: Q04DX003 (ip), vehicle: Klucel (hydroxypropylcellulose) (HPC)) is 90 % of control.
Turning to `CCOC(=O)NCCCCCCNC(=O)OCC`, the T/C is 99 % of control and 90 % of control under setting [8]; 90 % of control and 95 % of control under setting [9]; 93 % of control and 98 % of control under setting [10].
`CC1CCC2(C)OC1OC2CN` (stereo unspecified): the T/C under setting [11] is 100 % of control, the T/C under setting [12] was 99 % of control and the T/C under setting [13] was 100 % of control.
For `O=NNc1c2ccccc2nc2ccccc12`, the T/C (dose: 0.09 mg/kg/injection, schedule: Q01DX009 (ip), vehicle: water) was 99 % of control; the T/C (dose: 0.18 mg/kg/injection, schedule: Q01DX009 (ip), vehicle: water) is 95 % of control; the T/C (dose: 0.37 mg/kg/injection, schedule: Q01DX009 (ip), vehicle: water) is 101 % of control; the T/C (dose: 0.75 mg/kg/injection, schedule: Q01DX009 (ip), vehicle: water) was 104 % of control; the T/C (dose: 1.5 mg/kg/injection, schedule: Q01DX009 (ip), vehicle: water) is 86 % of control.
As to `Cc1ccc(C(C(=O)O)(c2ccc(C)c(C)c2)C(O)C(=O)O)cc1C` (stereo unspecified), the T/C (dose: 100.0 mg/kg/injection, schedule: Q01DX001 (ip), vehicle: Klucel (hydroxypropylcellulose) (HPC)) is 106 % of control; the T/C (dose: 200.0 mg/kg/injection, schedule: Q01DX001 (ip), vehicle: Klucel (hydroxypropylcellulose) (HPC)) is 106 % of control; the T/C (dose: 400.0 mg/kg/injection, schedule: Q01DX001 (ip), vehicle: Klucel (hydroxypropylcellulose) (HPC)) is 104 % of control.
As to `CCCCNC(=S)NNc1nc(N(CC)CC)nc(N(CC)CC)n1`, the T/C was 99 % of control under setting [14] and 99 % of control (dose: 200.0 mg/kg/injection, schedule: Q04DX002 (ip), vehicle: saline with Tween-80).
As to `C=CC(=O)NC(O)C(Cl)(Cl)Cl` (stereo unspecified), the T/C by setting is: under setting [8], 98 % of control; under setting [9], 98 % of control; under setting [10], 102 % of control.
For the compound `COc1cccc2c1C(=O)c1c(O)c3c(c(O)c1C2=O)CC(O)(/C(C)=N/NC(=O)CCCCC(=O)N/N=C(\C)C1(O)Cc2c(O)c4c(c(O)c2C(OC2CC(N)C(O)C(C)O2)C1)C(=O)c1c(OC)cccc1C4=O)CC3OC1CC(N)C(O)C(C)O1` (stereo unspecified), the T/C was 118 % of control (dose: 0.2 mg/kg/injection, schedule: Q01DX009 (ip), vehicle: water); 154 % of control (dose: 0.78 mg/kg/injection, schedule: Q01DX009 (ip), vehicle: water); 157 % of control and 172 % of control (dose: 1.56 mg/kg/injection, schedule: Q01DX009 (ip), vehicle: water); 186 % of control and 189 % of control (dose: 3.13 mg/kg/injection, schedule: Q01DX009 (ip), vehicle: water); 281 % of control and 289 % of control (dose: 6.25 mg/kg/injection, schedule: Q01DX009 (ip), vehicle: water); 100 % of control and 102 % of control (dose: 12.5 mg/kg/injection, schedule: Q01DX009 (ip), vehicle: water).
On to `CC1(C)N=C(N)N=C(N)N1c1ccc(CNC(=O)Nc2cccc(S(=O)(=O)F)c2)cc1`, for which the T/C runs as follows: (dose: 100.0 mg/kg/injection, schedule: Q04DX003 (ip), vehicle: saline) 154 % of control; (dose: 150.0 mg/kg/injection, schedule: Q04DX003 (ip), vehicle: saline) 168 % of control; (dose: 225.0 mg/kg/injection, schedule: Q04DX003 (ip), vehicle: saline) 200 % of control.
On to `C(COCC1CO1)OCC1CO1` (stereo unspecified), for which the T/C was 120 % of control under setting [1] and 150 % of control under setting [3].
For the compound `CSc1cccc(NC(=O)OCCOc2ccc(Cl)cc2)c1`, the T/C is 102 % of control under setting [4], 100 % of control under setting [5] and 92 % of control under setting [6].
Regarding `CC1CCC(n2cnc3c(Cl)ncnc32)O1` (stereo unspecified), the T/C was 97 % of control (dose: 25.0 mg/kg/injection, schedule: Q01DX005 (ip), vehicle: Klucel (hydroxypropylcellulose) (HPC)); 103 % of control under setting [8]; 110 % of control under setting [9]; 112 % of control under setting [10]; 114 % of control (dose: 400.0 mg/kg/injection, schedule: Q01DX005 (ip), vehicle: Klucel (hydroxypropylcellulose) (HPC)).
As for `O=S(=O)(F)c1ccc(N=C=S)cc1`, the T/C was 100 % of control (dose: 6.25 mg/kg/injection, schedule: Q04DX003 (ip), vehicle: saline with Tween-80); 104 % of control (dose: 12.5 mg/kg/injection, schedule: Q04DX003 (ip), vehicle: saline with Tween-80); 109 % of control (dose: 25.0 mg/kg/injection, schedule: Q04DX003 (ip), vehicle: saline with Tween-80).
With `Clc1ccc2c(ccc3ccc(Cl)nc32)n1`, the T/C (dose: 25.0 mg/kg/injection, schedule: Q04DX002 (ip), vehicle: saline with Tween-80) was 100 % of control; the T/C (dose: 50.0 mg/kg/injection, schedule: Q04DX002 (ip), vehicle: saline with Tween-80) was 98 % of control; the T/C under setting [14] is 89 % of control.
`O=C/C(=N/Nc1ccc([N+](=O)[O-])cc1)c1ccccc1`: the T/C is, setting by setting: (dose: 37.5 mg/kg/injection, schedule: Q01DX009 (ip), vehicle: saline with Tween-80) 94 % of control; (dose: 75.0 mg/kg/injection, schedule: Q01DX009 (ip), vehicle: saline with Tween-80) 90 % of control; (dose: 150.0 mg/kg/injection, schedule: Q01DX009 (ip), vehicle: saline with Tween-80) 86 % of control.
As for `N#CC1=CCc2ccccc2N1C(=O)Oc1ccccc1`, the T/C is 97 % of control (dose: 60.0 mg/kg/injection, schedule: Q01DX005 (ip), vehicle: saline with Tween-80); 88 % of control (dose: 120.0 mg/kg/injection, schedule: Q01DX005 (ip), vehicle: saline with Tween-80); 88 % of control (dose: 240.0 mg/kg/injection, schedule: Q01DX005 (ip), vehicle: saline with Tween-80).
As for `Cc1cc(N=Nc2ccc(N=Nc3ccc(S(=O)(=O)O)cc3)cc2)cc(C(=O)O)c1O`, the T/C is 114 % of control under setting [1]; 113 % of control under setting [2]; 91 % of control and 96 % of control under setting [3]; 93 % of control (dose: 200.0 mg/kg/injection, schedule: Q01DX009 (ip), vehicle: saline).
With `O=c1c2ccccc2[nH]c2cc([N+](=O)[O-])cc([N+](=O)[O-])c12`, the T/C by setting is: under setting [11], 90 % of control; under setting [12], 90 % of control; under setting [13], 98 % of control.
